Test results taken from patent US8048882B2, “Pharmaceutical compositions with increased activity” (priority 2003, dated 2011).
Like-named read-outs stand apart in the source and are kept apart here.

Key:
[1] = system: GYKI 20039-induced tremor; assay: GYKI 20039-induced tremor test; type: in vivo, mice; conditions: for change of effectiveness in tremor test when a serotonin uptake inhibitor is present: with 10 mg/kg fluoxetine or 10 mg/kg sertraline i.p., FIG. 4
Method: Tremor can be induced by administration of GYKI 20039 (3-(2,6-diclorophenyl)-2-iminothiazolidine). The method was published by Kocsis P., Tarnawa I., Kovacs Gy., Szombathelyi Zs., Farkas S., 2002; Acta Pharmaceut. Hung., 72:49-61; U.S. Pat. No. 5,340,823, 1994, U.S. Pat. No. 5,198,446, JP 1992270293, EP 0468825, 1990 HU 4647.
Tests were carried out in male NMRI mice (19-21 g), the active substances were administered i.p., simultaneously.
Experiments with combinations containing the active agents in a fixed ratio were also performed.

[2] = system: maximal electroshock seizures; assay: Inhibition of maximal electroshock seizures (MES); type: in vivo, mice; conditions: sodium channel blocker 30 minutes prior to electroshock
Method: Experiments in this respect were carried out on male NMRI mice (19-21 g).
Serotonin uptake inhibitors were administered i.p. 45 minutes, while sodium channel blockers 30 minutes prior to the electroshock.

[3] = Rotarod test; conditions: male, NMRI, mouse, in vivo, read-out: ED50, rotarod test in mice
Method: By the rotarod test (Dunnham, N. W., Miya, T. S. J. Am. Pharm. Assoc. 46, 208, 1957) impaired coordination and disorders of the voluntary movement as possible side effects can be studied. In this respect the change in the potency of the voltage-dependent sodium channel blockers caused by the serotonin uptake inhibitors was far less pronounced, resulting in a more favourable side effect profile of the combinations compared to that of the parent compounds.
The tests were carried out using male NMRI mice (19-21 g). Experiments performed with different pretreatment times produced similar results.

[4] = system: spinal reflex (L5 ventral root reflex potential); assay: Inhibition of the spinal reflex in isolated hemisected spinal cord preparation, in vitro; design: species or system rat; conditions: alone
Method: Our experiments were performed according to the methods described by Otsuka and Konishi (Otsuka, M., Konishi, S. Electrophysiology of mammalian spinal cord in vitro. Nature 252, 733-734; 1974), with slight modifications (Kocsis, P. et al. Participation of AMPA- and NMDA-type excitatory amino acid receptors in the spinal reflex transmission, in rat. Brain Research Bulletin 60: 81-91; 2003). The L5 dorsal root of the isolated, hemisected spinal cord preparation was stimulated by supramaximal electrical impulse and the reflex potential from the L5 ventral root was recorded. Different components of the reflex potential obtained are well distinguishable based on their post-stimulus latencies and durations. […] This preparation is ideal for the investigation of pharmacodynamic interactions between two substances, since metabolic factors take no part in them. […] Cont (control)=effect of crobenitine in itself; as well as in the presence of fluoxetine (Fluo; 1 μM), sertraline (Sert; 0.5 μM), paroxetine (Paro; 10 nM) and citalopram (Cital; 5 nM).

[5] = system: phenylquinone-induced acute pain; assay: Phenylquinone-induced acute pain (writhing test); type: in vivo, mice; conditions: with 10 mg/kg fluoxetine given 15 minutes prior to lamotrigine (i.p.); FIG. 5
From the text: The method used was described by Hendershot and Forsaith in 1959. (Kazuko Goto et al. Analgesic Effect of Mofezolac, a Non-Steroidal Anti-Inflammatory Drug, Against Phenylquinone-Induced Acute Pain in Mice. Prostaglandins & other Lipid Mediators 56: 245-254; 1998, Prem Prakash Singh et al. Acetic Acid and Phenylquinone WrithingTest: A Critical Study in Mice. Meth and Find Exptl Clin Pharmacol 5(9): 601-606; 1983.) Acute pain was induced by injecting phenylquinone, an irritant, into the abdominal cavity (0.02% solution, 0.1 ml/10 g bodyweight). […] Experiments were performed in male NMRI mice (19-21 g).

[6] = 10 mg/kg intraperitoneal dose in mice
[7] = with fluoxetine (10 mg/kg) i.p. 45 minutes
[8] = with sertraline (10 mg/kg) i.p. 45 minutes
[9] = in combination with fluoxetine (10 mg/kg)
[10] = in combination with sertraline (10 mg/kg)

N=C1SCCN1c1c(Cl)cccc1Cl [GYKI 20039, 3-(2,6-diclorophenyl)-2-iminothiazolidine]
duration of induced tremor [1, 6]: 30 to 60 min
tremor induction [1, 6]: intensive tremor

C[C@@H](CN1CC[C@@]2(C)c3cccc(O)c3C[C@@H]1C2(C)C)OCc1ccccc1 [crobenetine]
change of effectiveness in tremor test when a serotonin uptake inhibitor is present [1]: increase of their effectiveness
ID50 (MES inhibition in mice) ([2]; alone): >>20
ID50 (MES inhibition in mice) [2, 7]: 17 mg/kg
ID50 (MES inhibition in mice) [2, 8]: 15.5 mg/kg
ED50 at 20 min ([3]; alone): 68.1 mg/kg
ED50 at 20 min [3, 9]: 38.6 mg/kg
ED50 at 35 min [3, 9]: 51 mg/kg
ED50 at 20 min [3, 10]: 36.8 mg/kg
ED50 at 35 min [3, 10]: 53.1 mg/kg

CCc1ccc(C(=O)C(C)CN2CCCCC2)cc1 (stereo not shown) [eperisone]
spinal reflex inhibitory effect [4]: considerable spinal reflex inhibitory effect

CNCCC(Oc1ccc(C(F)(F)F)cc1)c1ccccc1 (stereo not shown) [fluoxetine]
ED50 at 20 min ([3]; alone): 43.5 mg/kg
ED50 at 35 min ([3]; alone): 45.8 mg/kg

Nc1nnc(-c2cccc(Cl)c2Cl)c(N)n1 [lamotrigine]
ID50 (i.p.) (calculated for the sodium channel blocker in the combination) ([1]; tremor test, male NMRI mice, i.p., components administered simultaneously in fixed ratio): 39.79 mg/kg
change of effectiveness in tremor test when a serotonin uptake inhibitor is present [1]: increase of their effectiveness
ID50 (MES inhibition in mice) ([2]; alone): 4.5 mg/kg
ID50 (MES inhibition in mice) [2, 7]: 1.3 mg/kg
ID50 (MES inhibition in mice) [2, 8]: 1.4 mg/kg
ED50 at 20 min ([3]; alone): 34.3 mg/kg
ED50 at 20 min [3, 9]: 28.5 mg/kg
ED50 at 35 min [3, 9]: 31.1 mg/kg
ED50 at 20 min [3, 10]: 31.9 mg/kg
ED50 at 35 min [3, 10]: 30.8 mg/kg
change in analgesic potency (ID50, writhing test) in the presence of a serotonin uptake inhibitor [5]: Increase in the analgesic potency

CN[C@H]1CC[C@@H](c2ccc(Cl)c(Cl)c2)c2ccccc21 [sertraline]
ED50 at 20 min ([3]; alone): 112 mg/kg
ED50 at 35 min ([3]; alone): 120 mg/kg

Cc1ccc(C(=O)C(C)CN2CCCCC2)cc1 (stereo not shown) [tolperisone]
spinal reflex inhibitory effect [4]: considerable spinal reflex inhibitory effect
